Data published in US9340477B2, “Process for production of hydroxystilbene derivative having physiological activity” (UHA MIKAKUTO CO., LTD., priority 2010, dated 2016).

How the values were obtained:
[1] = tested on: SCC-4 cells (human oral cancer cells, ATCC); test: Cancer cell growth suppressing action using SCC-4 oral cancer cells (Cell counting kit-8); format: cell-based; details: 6.3-100 μM, Cell counting kit-8, DMSO negative control, read-out: Cell growth suppressing ability (IC50)
Method: Next, in order to see the effect of the hydroxystilbene derivative to oral cancer cells, cancer cell growth suppressing action using SCC-4 cells (human oral cancer cells, ATCC) was tested.
For culturing the SCC-4 cells, a DMEM/F-12 (1:1) culture medium (manufactured by GIBCO) containing 400 ng/mL hydrocortisone (manufactured by Sigma-Aldrich Japan), 1% antibiotic-antimycotic (manufactured by GIBCO), and 10% FBS (Foetal Bovine Serum, manufactured by ATCC) was used. For the test, a collagen I coat 96 well plate for cell culture (manufactured by Japan BD) was used, and SCC-4 cells whose number of cells was adjusted to be 5×10^5 cells/mL were seeded at 100 μL per well. The cells were cultured under the conditions of 37° C. and 5% CO2 for 24 hours, and were used for the test in a confluent state of 80% or higher.
As samples, p-coumaric acid, ferulic acid, caffeic acid, sinapic acid, resveratrol, pterostilbene, piceatannol, and the UHA1027, the UHA1028, the UHA1123, the UHA1124, the UHA1125, the UHA7032, the UHA7033, the UHA7034, and the UHA9021 which were already purified were used. With respect to the preparation of the samples, each compound was dissolved in DMSO, and then prepared in such a manner as to achieve 0.63 mM, 1.25 mM, 2.5 mM, 5 mM, and 10 mM. The samples were added in such a manner that the final concentration in the SCC-4 cell culture solution was 6.3 μM, 12.5 μM, 25 μM, 50 μM, and 100 μM. Then, the test was started. A sample to which an equivalent amount of only DMSO as the solvent was added was used as a negative control.
The number of viable cells was quantified by an MTT method using a “Cell counting kit-8” in the same manner as in Example 15, and the concentration IC50 at which the cell growth is suppressed by 50% was calculated.

[2] = Physicochemical properties: solubility in solvents
[3] = tested on: HL-60 cells (human promyelocytic leokemia cells); test: Cancer cell growth suppressing action using HL-60 cells (Cell counting kit-8); format: cell-based; details: 24 hours, 6.3-100 μM, viable cells vs DMSO only, read-out: Cell growth suppressing ability to HL-60 (IC50)
Method: Next, in order to see the effect of the hydroxystilbene derivative to cancer cells, cancer cell growth suppressing action using HL-60 cells (human promyelocytic leokemia cells) was tested.
For culturing the HL-60 cells, an enriched culture medium “RPMI-1640” (manufactured by Sigma-Aldrich Japan) containing 4 mM glutamine (L-Glutamine, manufactured by Sigma-Aldrich Japan) and 10% FBS (Foetal Bovine Serum, manufactured by Biological Industries) was used. For the test, a 96-well plate for cell culture (manufactured by Corning Japan) was used, and the HL-60 cells whose number of cells was adjusted to be 5×10^5 cells/mL were seeded at 100 μL per well
As samples, p-coumaric acid, ferulic acid, caffeic acid, sinapic acid, resveratrol, pterostilbene, and the UHA1027, the UHA1028, the UHA1123, the UHA1124, the UHA1125, the UHA7032, the UHA7033, and the UHA9021 which were already purified were used. With respect to the preparation of the samples, each compound was dissolved in DMSO (Wako Pure Chemical Industries, Ltd.), and then adjusted in such a manner that the final concentration in the HL-60 cell culture solutions was 6.3 μM, 12.5 μM, 25 μM, 50 μM, and 100 μM. Then, the test was started.
The number of viable cells was quantified by an MTT method using a “Cell counting kit-8” (manufactured by DOJINDO LABORATORIES). 24 hours after starting the test, 10 μL of a Cell counting kit-8 solution was added to each well, and then sufficiently stirred. After a shading reaction for 1 hour, the absorbancy was measured at a measurement wavelength of 450 nm using a plate leader (Biorad Laboratories, Inc., “BIO-RAD Model 680”). Then, the cell viability was calculated based on the obtained data. The cell viability is a value obtained by setting the number of viable cells of the culture liquid to which only DMSO as a solvent was added to 100%, and then calculating the number of viable cells under the concentration of each compound as a relative value. From the relationship between the concentration of each compound and the cell viability, the concentration IC50 (50% inhibition concentration) at which the cell growth is suppressed by 50% was calculated.

[4] = target: rat intestine derived lipase; test: Lipase inhibitory action test (Lipase kit S); format: biochemical; details: rat intestine acetone powder lipase, 30° C., 10 minutes reaction
Method: In order to see the inhibitory action to lipase of the hydroxystilbene derivative, an inhibitory action test using rat intestine derived lipase was performed.
As lipase, one obtained by suspending 100 mg of rat derived intestine acetone powder (manufactured by Sigma-Aldrich Japan) in 1 mL of 100 mM citric acid buffer (pH 6.0), stirred at 4° C. for 1 hour, centrifuging the same (at 15000 rpm for 45 minutes at 4° C.), and then diluting the supernatant by 1500 times was used as a lipase solution.
As samples, p-coumaric acid, caffeic acid, sinapic acid, resveratrol, and the UHA1027, the UHA1028, and the UHA9021 which were already purified were used. With respect to the preparation of the samples, each compound was dissolved in DMSO, and then prepared in such a manner as to achieve 0.1 mM, 0.5 mM, 1 mM, 2 mM, and 4 mM.
For measuring the activity, a “Lipase kit S” (Trade name, manufactured by Dainippon Pharmaceutical Co., Ltd.) was used. First, in accordance with a preparation method described in the catalog of the Lipase kit S, a color developing liquid was prepared. Reaction liquids in which 70 μl of the color developing liquid, 2 μl of an esterase inhibitor, 10 μl of the lipase solution, and 10 μl of the samples (Final concentration: 10 μM, 50 μM, 100 μM, 200 μM, 400 μM, and 1000 μM) were mixed were prepared, preincubated at 30° C. for 5 minutes, and then 8 μl of a substrate solution described in the catalog was added. Then, a reaction was started. After reacting for 10 minutes, 150 μl of a reaction stop liquid prepared in accordance with the preparation method described in the catalog of the Lipase kit S was added to stop the reaction. The resultant substance was subjected to a measurement of absorbancy at a wavelength of 415 nm. A reaction liquid to which only DMSO as the solvent of the sample was added was used as a positive control and one to which 10 μl of 100 mM citric acid buffer (pH 6.0) was added instead of the lipase solution was used as a negative control. From the relationship between the lipase inhibition rate calculated based on the data obtained therefrom and the concentration of each compound, the concentration IC50 at which the lipase activity is inhibited by 50% was calculated.

With `COc1cc(C(C)c2c(O)cc(/C=C/c3ccc(O)cc3)cc2O)cc(OC)c1O` (stereo not drawn) [UHA1028] the IC50 [1] was 17.6 µM, the “Solubility: DMSO” value ([2]; DMSO) was “Soluble” and the “Solubility: Chloroform” value ([2]; chloroform) was “Soluble”. For the same molecule, the “Solubility: Ethanol” value ([2]; ethanol) was “Soluble”, the “Solubility: Ethyl acetate” value ([2]; ethyl acetate) was “Soluble” and the “Solubility: Methanol” value ([2]; methanol) was “Soluble”. The “Solubility: Water” value ([2]; water) was “Poorly soluble”, the IC50 [3] was 14.1 µM and the IC50 [4] was 510 µM.
